Laboratory results taken from EPA's CvTdb concentration-time database.

Assays:
[1] = test system: rat; assay: concentration in urine after dosing; conditions: male
[2] = test system: rat; assay: concentration in feces after dosing; conditions: male
[3] = test system: rat; assay: concentration in body after dosing; conditions: dosed: [3H]benzo(a)pyrene, 1 ug/kg, inhalation, male, Sprague Dawley, radiolabel
[4] = test system: rat; assay: concentration in lung after dosing; conditions: dosed: [3H]benzo(a)pyrene, 1 ug/kg, inhalation, male, Sprague Dawley, radiolabel
[5] = test system: rat; assay: concentration in blood after dosing; conditions: dosed: [3H]benzo(a)pyrene, 1 ug/kg, inhalation, male, Sprague Dawley, radiolabel
[6] = test system: rat; assay: concentration in liver after dosing; conditions: dosed: [3H]benzo(a)pyrene, 1 ug/kg, inhalation, male, Sprague Dawley, radiolabel
[7] = test system: rat; assay: concentration in testes after dosing; conditions: dosed: [3H]benzo(a)pyrene, 1 ug/kg, inhalation, male, Sprague Dawley, radiolabel
[8] = test system: rat; assay: concentration in spleen after dosing; conditions: dosed: [3H]benzo(a)pyrene, 1 ug/kg, inhalation, male, Sprague Dawley, radiolabel
[9] = test system: rat; assay: concentration in kidney after dosing; conditions: dosed: [3H]benzo(a)pyrene, 1 ug/kg, inhalation, male, Sprague Dawley, radiolabel
[10] = test system: rat; assay: concentration in stomach after dosing; conditions: dosed: [3H]benzo(a)pyrene, 1 ug/kg, inhalation, male, Sprague Dawley, radiolabel
[11] = test system: rat; assay: concentration in intestines after dosing; conditions: dosed: [3H]benzo(a)pyrene, 1 ug/kg, inhalation, male, Sprague Dawley, radiolabel
[12] = test system: rat; assay: concentration in heart/thymus after dosing; conditions: dosed: [3H]benzo(a)pyrene, 1 ug/kg, inhalation, male, Sprague Dawley, radiolabel

Oc1ccc2ccc3c4ccccc4cc4ccc1c2c43 [3-OH-BP]
dosed: benzo[a]pyrene, 200 mg/kg, iv, LIO
Conditions	concentration in feces, [2] [µg/kg]	concentration in urine, [1] [µg/kg]
24 h	6.9	3.9
48 h	9.9	5.4
72 h	8.9	6.2
96 h	9.6	5
120 h	7.7	4.2
144 h	9.1	2.6
168 h	8.4	2.6
192 h	4	2.5
216 h	3.3	2.8
240 h	3.2	2.7
264 h	3.1	2.5
288 h	2.5	2.6
312 h	2.5	2.5
336 h	2.3	2.2
360 h	2.3	2.5

[3H][3H] [[3H] radioactivity]
Conditions	concentration in blood, [5] [µg/kg]	concentration in body, [3] [µg/kg]	concentration in heart/thymus, [12] [µg/kg]	concentration in intestines, [11] [µg/kg]	concentration in kidney, [9] [µg/kg]	concentration in liver, [6] [µg/kg]	concentration in lung, [4] [µg/kg]	concentration in spleen, [8] [µg/kg]	concentration in stomach, [10] [µg/kg]	concentration in testes, [7] [µg/kg]
0.25 h	0.038	0.23	0.008	0.049	0.019	0.196	0.322	0.004	0.007	0.007
0.5 h	0.016	0.263	0.005	0.052	0.014	0.186	0.204	0.002	0.012	0.006
1 h	0.016	0.271	0.005	0.099	0.022	0.158	0.154	0.003	0.046	0.011
1.5 h	0.021	0.25	0.005	0.126	0.024	0.171	0.113	0.002	0.037	0.013
2 h	0.019	0.223	0.006	0.11	0.02	0.132	0.11	0.002	0.069	0.011
3 h	0.011	0.214	0.005	0.123	0.018	0.083	0.068	0.002	0.05	0.008
4 h	0.008	0.21	0.004	0.133	0.017	0.067	0.035	0.001	0.04	0.009
5 min	0.039	0.144	0.009	0.019	0.011	0.125	0.595	0.005	0.003	0.004
6 h	0.017	0.215	0.004	0.149	0.02	0.046	0.052	0.002	0.058	0.008
10 min	0.03	0.264	0.016	0.033	0.019	0.208	0.419	0.003	0.007	0.005

dosed: [3H]benzo(a)pyrene, 1 ug/kg, inhalation, Sprague Dawley, radiolabel
Conditions	concentration in feces, [2] [µg/kg]	concentration in urine, [1] [µg/kg]
0.25 h	0.029	0.002
0.5 h	0.033	0.001
1 h	0.143	0.003
1.5 h	0.171	0.008
2 h	0.168	0.011
3 h	0.256	0.012
4 h	0.301	0.016
5 min	0.005	–
6 h	0.447	0.022
10 min	0.008	0.0001
